For data set [1], the system named is Carrageenin edema of the hind paw of the rat. Briefly: Anti-edematic effect, Carrageenin paw edema method, oral, in rats. The data set is classed as in vivo, rat (Wistar strain). The procedure: Test animal: For the respective compounds, four male rats of the Wistar strain weighing approximately 150g were used. The test animals were made to fast for approximately 16 hours.
The anti-edematic test is carried out by determining the increase of edema due to the injection of […], in accordance with the paw edema method. [see Winter. C. A. et al; Proc. Soc. exp.
The test compounds were respectively suspended in five percent of aqueous solution of gum Arabic, and the suspensions were orally administered to the rats one hour before the injection of the Carrageenin. Activities were determined by measuring the volume of the hind paw of the rat three hours after the administration of the Carrageenin.

The test system of the next data set is stomach mucosa. The data set is described as follows: Degree of gastric trouble (visible observation of stomach mucosa). The data set is classed as in vivo, rat (Wistar strain). The source says: 2. Degree of gastric trouble
The rats used in above test of anti-edematic effects were slaughtered, and their stomaches were visibly observed in accordance with the under-mentioned bases. Measurement values were decided by summing up the respective data of 4 tests of each group.
Visible observation of the stomach mucosa
No abnormality is recognized
Slight edema, congestion or slight erosion
Scattered or limitted erosion and spotted
Heavy erosion, linear bleeding or enlarged

A short description of a further data set: pH of the test compound. It is filed as physicochemical. The settings on record: footnote of Table 5.
The next data set concerns Stress Ulcer (Immersion). The data set is described as follows: Stress Ulcer (Immersion) at 23-25° C. for 20 hrs. The data set is classed as in vivo, rat (Wistar strain). Here is the method:
(§1) Using rats of Wistar strain as test animals weighing about 150 - 160 g., the anti-ulcer activities were measured in accordance with the conventional manner with respect to the following four (4) items.
i. Stress Ulcer (Immersion) at 23° - 25° C. for 20 hrs.

The subject of data set [2] is gastric secretion stimulated by carbachol. The data set is described as follows: Effect on gastric secretion stimulated by carbachol in acute gastric fistula rats. It is filed as in vivo, rat (Wistar strain). The settings on record: FIG. 1. The procedure:
as §1
iv. Effect on gastric secretion in acute gastric fistula rats.
Comparative tests were carried out to measure the effects on gastric secretion stimulated by carbachol and the effects of Compounds A and C on eight rats of Wistar strain. The results are graphically shown in the accompanying FIG. 1.

A further data set has as its system Shay Ulcer. The data set is described as follows: Effect on Shay Ulcer in rats (17hr. pylorus-ligated rats). It is filed as in vivo, rat (Wistar strain). Here is the method: as §1
iii. Effect on Shay Ulcer in rats. (Method by 17hr. pylorusligated rats)

A further data set deals with gastric secretion. The data set is described as follows: Effect on gastric secretion in 4hr. pylorus-ligated rats (intraduodenal). It is filed as in vivo, rat (Wistar strain). The procedure: as §1
ii. Effect on gastric secretion in 4hr. pylorus-ligated rats. (Intraduodenal administration)

The test system of data set [3] is acetic acid Writhing syndrome. Briefly: Anti-acetic acid Writhing test, oral, in mice. It is filed as in vivo, mouse (dd strain). Here is the method: Comparative tests for anti-acetic acid Writhing activity in mice were made to the Compound A of the present invention and 4-amino-pyrimidine-N^1 -phenacylbromide (hereinafter referred to as Compound C), using Aspirin as a control compound. The test compounds were respectively suspended in an of aqueous solution of containing five percent of gum Arabic. Eight male mice of dd strain weighing approximately 20 - 23g were used as the test animals. The mice were made to fast for about 19 hours.
After 50 minutes or 170 minutes of administration of the test compounds, 0.1 ml of 0.7% acetic acid solution per 10 g. of the body weight of the test animal was injected intraperitoneally. Regarding the expansion of the hind paw of the mice induced during 15 minutes after the injection, a number of Writhing syndromes were encountered and recorded. Effects of the respective test compounds against the usual behavior of the mice were also observed. In the above test, 5% gum arabic solution per se was administered to the control animal.
Various doses of the respective compounds were orally administered to eight mice. After 1 or 3 hours of the administration, a anti-acetic acid Writhing test was carried out.
A general note: Writhing tests count abdominal constrictions after an irritant is injected.

The mark [4] stands for this setting: 17hr pylorus-ligated, dose not given in Table 7.
Setting [5] is: 150 (mg/μg [sic]) intraduodenal.
Setting [6] is: 300 (mg/μg [sic]) intraduodenal.

The text below walks through data of patent US4038278A, “4-Aminopyrimidium derivatives and preparation thereof” (Eisai Co., Ltd., priority 1974, dated 1977).

Take `Cc1cccc(C(=O)C[n+]2ccc(N)nc2)c1` [Compound B, 4-aminopyrimidine N^1-(m-methylphenacyl)bromide]: the “anti-edematic / anti-inflammatory effect in words” value in data set [1] (100 mg/Kg p.o.) was “equal to, or more than that of the Control compound”. Also, the “Anti-edematic ratio (%)” value in data set [1] (100 mg/kg p.o., rats, 3 hours after Carrageenin) is 35.3%. Moreover, in data set [1] (100 mg/kg p.o., Control compound (Aspirin) = 100), the “Comparison with Control Compound (anti-edematic ratio)” value worked out at 99. Further, the “degree of gastric trouble in words” value with stomach mucosa (100 mg/Kg p.o.) is “extremely less than that of the Control compound”. For the same compound, the “Degree of gastric trouble” value in the data set on stomach mucosa (100 mg/kg p.o., sum of scores (0-3) of 4 rats) was 6.

`Nc1cc[n+](CC(=O)c2ccccc2)cn1` [Compound C, 4-amino-pyrimidine-N^1-phenacylbromide]: in “pH of the test compound”, the “pH of the test compound” value was 5.8. Moreover, the “Inhibitory % (ulcer index)” value came out at 23.4% with Stress Ulcer (Immersion) (150 mg/Kg p.o.); 66.2% in the data set with Stress Ulcer (Immersion) (300 mg/Kg p.o.); 64.8% in the data set with Shay Ulcer (300 (mg/μg [sic]), 17hr pylorus-ligated). In addition, the “Ulcer Index (mm)” value in the data set with Stress Ulcer (Immersion) (150 mg/Kg p.o., * P<0.05 for Compound C) was found to be 53.1 ± 5.8 mm; in the data set with Stress Ulcer (Immersion) (300 mg/Kg p.o., ** P<0.01 for Compound A, * P<0.05 for Compound C), 23 ± 6.3 mm; in the data set with Shay Ulcer (300 (mg/μg [sic]), 17hr pylorus-ligated, Compound A n=2, individual values (0),(84), Compound C n=6, * P<0.05), 19 ± 7 mm. Moreover, in the data set on Stress Ulcer (Immersion) (300 mg/Kg (p.o.)), the “effect on stress ulcer in words” value is listed as “effective”. Besides, the “inhibitory effect to Maximum Response” value in data set [2] is reported as “about 35%”. Besides, the “Inhibitory % (titrable acidity)” value in the data set on Shay Ulcer (setting [4]) is recorded as -19.3%; in the data set on gastric secretion (setting [5]) it was 69.7%; in the data set on gastric secretion (setting [6]) it was 88.2%. For the same compound, the “Inhibitory % (volume)” value in the data set on Shay Ulcer (setting [4]) turned out to be 34.5%; in the data set on gastric secretion (setting [5]) it was 53.5%; in the data set with gastric secretion (setting [6]), 69.3%. Moreover, the “Titrable Acidity to pH 7.0” value with Shay Ulcer (setting [4]) came to 414.8 ± 83.0 μ Eq/100g B.W. Further, the “Vol(ml) 100g B.W.” value in the data set on Shay Ulcer (17hr pylorus-ligated, dose not given in Table 7, Compound A n=2, individual values (1.11),(3.29)) worked out at 3.14 ± 0.43 ml/100g B.W. The “inhibitory effect against the appearance of ulcer in words” value in the data set on Shay Ulcer (Tables 6 and 7) is recorded as “outstanding inhibitory effects”. The “Titrable acidity to PH 7.0” value in the data set with gastric secretion (setting [5]) amounted to 57.0 ± 22.4 μEq/100g B.W; in the data set on gastric secretion (setting [6]) it was 22.2 ± 7.6 μEq/100g B.W. The “Vol/100 g B.W.(ml)” value in the data set with gastric secretion (setting [5]) stood at 0.94 ± 0.20 ml/100 g B.W; in the data set on gastric secretion (setting [6]) it was 0.62 ± 0.08 ml/100 g B.W. Further, the “% of Protection” value in data set [3] (1hr, 20 mg/Kg p.o.) is recorded as 8%; in data set [3] (1hr, 40 mg/Kg p.o.) it was 13%; in data set [3] (1hr, 80 mg/Kg p.o.) it was -12%; in data set [3] (1hr, 160 mg/Kg p.o., * P<0.05), 26%; in data set [3] (1hr, 320 mg/Kg p.o., ** P<0.01) it was 61%; in data set [3] (3hr, 20 mg/Kg p.o.), -35%. For the same compound, the “% of Protection” value in data set [3] (3hr, 40 mg/Kg p.o.) is 27%; in data set [3] (3hr, 80 mg/Kg p.o.) it was -19%; in data set [3] (3hr, 160 mg/Kg p.o., ** P<0.01 for Compound C), 64%; in data set [3] (3hr, 320 mg/Kg p.o., ** P<0.01), 58%. Further, the “No. of Writhing Syndrome (m±S.E.)” value in data set [3] (1hr, 20 mg/Kg p.o.) is listed as 36.9 ± 3.6; in data set [3] (1hr, 40 mg/Kg p.o.) it was 34.9 ± 7.3; in data set [3] (1hr, 80 mg/Kg p.o.) it was 45.3 ± 1.7; in data set [3] (1hr, 160 mg/Kg p.o.), 29.9 ± 5.1; in data set [3] (1hr, 320 mg/Kg p.o.), 15.9 ± 5.5; in data set [3] (3hr, 20 mg/Kg p.o.) it was 41.4 ± 5.0. Further, the “No. of Writhing Syndrome (m±S.E.)” value in data set [3] (3hr, 40 mg/Kg p.o.) is reported as 22.3 ± 5.3; in data set [3] (3hr, 80 mg/Kg p.o.), 36.4 ± 3.8; in data set [3] (3hr, 160 mg/Kg p.o.), 11.0 ± 3.3; in data set [3] (3hr, 320 mg/Kg p.o.), 12.9 ± 4.6.

Consider `CC(C)[N+](C)(CCOC(=O)C1c2ccccc2Oc2ccccc21)C(C)C` [Propantheline, reference compound], for which the “Inhibitory % (ulcer index)” value in the data set with Stress Ulcer (Immersion) (15 mg/Kg p.o.) turned out to be 37.0%; with Stress Ulcer (Immersion) (30 mg/Kg p.o.), 61.4%. For the same compound, the “Ulcer Index (mm)” value with Stress Ulcer (Immersion) (15 mg/Kg p.o.) came to 43.8 ± 12.9 mm; with Stress Ulcer (Immersion) (30 mg/Kg p.o., ** P<0.01) it was 26.8 ± 7.4 mm.
